This is an account of results in patent US20240208895A1, “BRANCHED-CHAIN AMINO ACID DERIVATIVES TO TREAT DISEASE” (INTRABIO LTD., priority 2021, published 2024).

For series [1], the target named is T1, monocarboxylate transporter (MCT1) (Homo sapiens, UniProt P53985).
T1 sequence (P53985 1-500): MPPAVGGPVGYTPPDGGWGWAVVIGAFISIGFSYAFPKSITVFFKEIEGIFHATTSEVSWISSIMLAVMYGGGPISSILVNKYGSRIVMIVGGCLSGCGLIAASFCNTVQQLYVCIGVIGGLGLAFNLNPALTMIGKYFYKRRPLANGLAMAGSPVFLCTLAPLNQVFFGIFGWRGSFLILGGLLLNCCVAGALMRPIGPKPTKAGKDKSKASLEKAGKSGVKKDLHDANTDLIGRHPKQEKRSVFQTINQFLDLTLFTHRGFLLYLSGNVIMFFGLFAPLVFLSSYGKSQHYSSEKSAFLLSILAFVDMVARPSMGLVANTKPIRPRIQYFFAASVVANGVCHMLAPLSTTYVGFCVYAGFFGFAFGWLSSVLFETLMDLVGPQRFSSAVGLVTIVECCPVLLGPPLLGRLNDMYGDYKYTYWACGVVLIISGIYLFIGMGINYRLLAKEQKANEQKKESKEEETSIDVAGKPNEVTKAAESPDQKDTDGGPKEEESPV
To be noted: read-out: Km, uptake by MCT1; uptake 1 min, room temperature. As for the experimental part: The known probe substrates used as positive controls are 3 μM chlorothiazide for OAT1, 2 μM estrone-3-sulfate for OAT3, 10 μM gabapentin for LAT1, 50 μM Gly-Sar for PepT1, 500 μM thiophene-2-glyoxylic acid for MCT1.
Enzyme kinetic data for uptake and metabolism of a Compound of the Disclosure is analysed by fitting the Michaelis-Menten equation to the data. V0=Vmax[S]/Km+[S], where V0 is initial velocity, [S] is substrate concentration, Vmax is maximum velocity and Km is substrate concentration at half Vmax. All fitting is performed using GraphPad Prism 8.4 software (GraphPad Software Inc). No weighting scheme is applied.

The nature of a further series: physchem. The format is physicochemical. The source says:
The physiochemical parameters of L-leucine were compared with N-acetyl-L-leucine. […] Log P is the octanol:water partition coefficient for the neutral form of a compound. In contrast, log D considers the ionization state of a molecule in aqueous (biological) solution resulting from basic groups gaining a proton and acidic groups losing a proton, and as such is better correlated with passive diffusion across membranes.

For a further series, the target named is T2, human transporter MCT1 (Homo sapiens, UniProt P53985).
T2 construct: expressed in transfected cells; host or cells: MDCK-II
T2 sequence (P53985 1-500): T1 sequence (P53985 1-500)
The series is described as follows: Human MCT1-mediated transport in MDCK-II cells (Example 9). To be noted: MDCK-II cells expressing human MCT1, pH 5.5, 1 minute, normalized to Vmax of thiophene-2-glyoxylic acid. The format is cell-based. Here is the method:
Representative Compounds of the Disclosure are tested in (i) MDCK-II cells expressing human transporter MCT1; and (ii) MDCK-II cells transfected with a control vector (GFP) as control cells for human transporter MCT1. 2-Thiophene-glyoxylic acid (TPGA) is the positive control for transport.
• 1. A stock solution is prepared with the test article (Compound of the Disclosure) in DMSO or in HBSS-Bis-Tris. • 2. Final assay solutions of probe substrate or test article contain 0.5% (v/v) DMSO (vehicle control). • 3. Test article concentrations are 10 μM, 30 μM, 100 μM, 300 μM, 1000 μM, 3000 μM, and 10000 μM.
MDCK-II cells are maintained in DMEM with low glucose and 10% FBS. Cells passages up to 40 are seeded at 60K±10K cells/well on 96-well, transwell membrane plates approximately 24 hours before transfection. Transport assays are carried out approximately 48 hours after transfection.
• 1. Test system: • a. Test system: 96-well cell culture plate with wells containing a monolayer of MDCK-II cells grown on a permeable support and a corresponding 96-well receiver tray. Cell plates are maintained at 37° C. in 5% CO2 atmosphere prior to initiation of the transport experiment. • b. Pre-incubation is conducted in HBSS, pH 7.4. Transport experiments are conducted in HBSS with Bis-Tris, pH 5.5, without phenol red. Pre-incubation and incubation are conducted at ambient temperatures. • c. Each condition is run in triplicate wells. • d. […] The result from the control cells is used to correct for substrate permeation by routes other than the transporter being investigated in the study. • 2. Prepare the 96-well plate as follows: • a. Wash the basal side of the culture plate insert with HBSS three times. After the final wash, blot the basal side of the wells and keep this side dry. • b. Wash the culture plate wells with HBSS three times. The wells of the culture plate serve as the apical compartment. • 3. Aspirate the final wash from the culture plate. The wells of the culture plate serve as the apical compartment. Add 100 μL of HBSS pH 7.4 pre-incubation buffer containing vehicle to the apical compartments. • 4. Incubate the plates with orbital shaking at approximately 60 RPM for the pre-incubation time specified in Table 1 of this protocol. • 5. Aspirate the pre-incubation buffer from the apical compartment of the plates. Add 100 μL of the experimental buffer that is prepared as follows and maintained at ambient temperatures. • a. For the probe substrate transport assay, the HBSS with Bis-Tris, pH 5.5 in each well contains the probe substrate at 500 μM (positive control for transport) and vehicle control. • b. For the test article assays, the HBSS with Bis-Tris, pH 5.5 in each well contains the test article at 10 μM, 30 μM, 100 μM, 300 μM, 1000 μM, 3000 μM, and 10000 μM. • 6. Incubate at ambient temperature with orbital shaking at approximately 60 RPM for the incubation time of 1 minute. • 7. […]
• 1. The amount of radiolabeled probe substrate will be quantified with radiometric detection on a 1450 Microbeta (Perkin-Elmer). • 2. The amount of non-radiolabeled probe substrate or test article will be quantified by LC-MS/MS. • 3. […] For uptake assays, the net transporter-mediated uptake rate (V) of the substrate by each SLC transporter will be calculated as follows:
[formula] • 5. For transport kinetics assessment, Km and Vmax will be calculated by non-linear regression using the Michaelis-Menten equation. • 6. […]

Consider `CC(=O)N[C@@H](CC(C)C)C(=O)O` [N-acetyl-L-leucine], for which, in series [1], the Km (as a rule, the concentration of substrate that gives half-maximal velocity) worked out at 3 mM. Moreover, the logD (in general, the decadic logarithm of the distribution of all forms, ionised or not, between an organic phase and buffer at a given pH) in the series “physchem” is -2.54. Besides, the “uptake mediated by MCT1” value at human transporter MCT1 was “transported”.
